From article PMC6273400, “Enhancement of Exposure and Reduction of Elimination for Paeoniflorin or Albiflorin via Co-Administration with Total Peony Glucosides and Hypoxic Pharmacokinetics Comparison” (Molecules, 2016)
Each block holds one compound with its values, some of them ahead of it.

Columns and labels:
[1] = Pharmacokinetics in rat plasma after intragastric administration, normoxia (UPLC-MS/MS); type: in vivo, Sprague-Dawley rats; settings: mean ± SD; for clearance / Cmax / Tmax / half-life: n = 6; for Cmax / Tmax / half-life / AUC(0-t) / MRT last: male, Sprague-Dawley, rat, plasma, po; for AUC(0-t): n = 6, read-out: AUC(0→24 h) (converted); for MRT last: n = 6, read-out: MRT(0→24 h) (converted)
Description: (§1) Male Sprague-Dawley (SD) rats (250 g ± 20 g) were purchased from the Animal Center of Capital Medical University (ACCMU, Beijing, China). Animals were housed in individual cages with free access to food and water in a room with the illumination (a 12 h light and dark cycle), temperature and relative humidity controlled automatically. Within five days before experiments a jugular vein in each rat under anaesthesia was cannulated by insertion of an indwelling cannula for blood sampling. After fully recovery, the rats were housed with unlimited access to food and water except for fasting 12 h before the experiment with water available. The seven groups of PF/AF and TGP were intragastrically administered to the Sprague-Dawley rats, respectively. All the animal experiments were carried out in accordance with the Guide for the Care and Use of Laboratory Animals as adopted and promulgated by the National Health Ministry of China. The protocols of animal experiments had been approved by the Animal Center of Capital Medical University.
(§2) The UPLC-MS/MS system consisted of a UPLC system (Agilent Technologies, Palo Alto, CA, USA) including a G4220A 1290 binary pump, a G1379A vacuum degasser, a G4226 autosampler, a G1330B 1290 thermostat and triple quadrupole mass spectrometer equipped with an electrospray ionization (ESI) source (Series 6490, Agilent Technologies). The system was controlled with the Agilent Technologies Mass Hunter Workstation B.06.00 software for data acquisition and analysis. The analytes were separated on ZORBAX Eclipse plus C18 column (2.1 mm × 100 mm, 3.5 μm). The mobile phase consisted of 0.2% (v/v) formic acid in water (A) and methanol (B). The mobile phase conditions were 79:21 (A:B, v/v) and the flow rate was 0.4 mL/min. The column temperature was maintained at 30 °C. The sample injection volume was 5 μL. The detection was performed on the triple quadrupole mass spectrometer equipped with electrospray source (Series 6490, Agilent Technologies). High purity nitrogen served as both the nebulizing and sheath gas. The optimized parameters in the positive or negative were as follows: capillary voltage at 3 kV, nozzle voltage at 1.5 kV, gas temperature of 200 °C and sheath gas temperature of 250 °C. The quantification was performed by multiple reaction monitoring (MRM) via precursor-to-product ion pair. AF and IS were detected in positive ion mode while PF was detected in negative ion mode. The parameters were set as follows: m/z 525→449 for PF (fragmentor energy, 380 eV; collision energy, 10 eV; dwell time, 80 ms); m/z 481→105 for AF (fragmentor energy, 380 eV; collision energy, 28 eV; dwell time, 80 ms); m/z 417→297 for IS (fragmentor energy, 380 eV; collision energy, 25 eV; dwell time, 80 ms).
(§3) A 100 μL aliquot of plasma sample was added with 50 μL 1% (v/v) formic acid in water and 50 μL IS working solution (the IS, concentration of 100 ng/mL) and 300 μL acetonitrile. After vortexing for 2 min and centrifugation at 13,000× g for 10 min, the sample was transferred to another Axygen tube and evaporated to dryness in a rotary evaporator at 40 °C. The residue was reconstituted in 100 μL of water–methanol (79:21, v/v), then an aliquot of 5 μL was injected into the UPLC-MS/MS system for analysis.
(§4) The male Sprague-Dawley (SD) rats were randomly divided into seven groups (six rats in each group), which were housed with unlimited access to food and water, except for fasting 12 h before the experiment with water ad libitum. The hypoxic rats were exposed to a fractional concentration of 9.0% O2 after intragastric administration of drug for hypoxia pharmacokinetics experiments. The compound PF (80 mg/kg, normoxia and hypoxia), AF (14 mg/kg, normoxia and hypoxia), combination administration of PF (80 mg/kg) and AF (14 mg/kg), the two dosages of TPG (PF with 80 mg/kg, and AF with 14 mg/kg) were intragastrically administered to the rats, respectively. […]

[2] = Pharmacokinetics in rat plasma after intragastric administration, hypoxia (9.0% O2); type: in vivo, Sprague-Dawley rats; settings: mean ± SD; for clearance / Cmax / Tmax / half-life: n = 6; for Cmax / Tmax / half-life / AUC(0-t) / MRT last: male, Sprague-Dawley, po; for AUC(0-t): n = 6, read-out: AUC(0→24 h) (converted); for MRT last: n = 6, read-out: MRT(0→24 h) (converted)
Description: as §1, §2, §3, §4

[3] = Stability of the analytes in SD rat plasma (QC samples); type: in vitro ADME; settings: 24 h after pretreatment, three freeze (−80 °C)/thaw (room temperature) cycles, 30 days at −80 °C
Description: The stabilities of the analytes in the SD rat plasma were investigated using the QC sample solutions stored under different temperature conditions for different periods of time which likely to be encountered during sample storage and the analytical process. The QC samples were tested for post-treatment, three freeze-thaw cycles and long-term stabilities. The post-treatment was evaluated by placing the QC samples in the autosampler for 24 h. And for freeze-thaw cycle stability assessment, the QC samples were repeatedly freezed and thawed for three cycles at −80 °C to 20 °C. The long-term stability was carried out via placing the QC samples at −80 °C for at least 30 days.

[4] = 14 mg/kg, AF (14 mg/kg) combined with PF (80 mg/kg), intragastric
[5] = 14 mg/kg, AF alone, 14 mg/kg intragastric, normoxia
[6] = 14 mg/kg, AF in TPG (TPG dose with AF 14 mg/kg), intragastric
[7] = AF 14 mg/kg single intragastric
[8] = 80 mg/kg, PF (80 mg/kg) combined with AF (14 mg/kg), intragastric
[9] = 80 mg/kg, PF alone, 80 mg/kg intragastric, normoxia
[10] = 80 mg/kg, PF in TPG (TPG dose with PF 80 mg/kg), intragastric
[11] = PF 80 mg/kg single intragastric

- clearance ([1]; AF (14 mg/kg) combined with PF (80 mg/kg), intragastric): 1800 ± 600 mL/min/kg
- clearance ([1]; AF alone, 14 mg/kg intragastric, normoxia): 1700 ± 500 mL/min/kg
- clearance ([1]; AF in TPG (TPG dose with AF 14 mg/kg), intragastric): 1200 ± 400 mL/min/kg
- Cmax [1, 4]: 42.4 ± 18.7 ng/mL
- Tmax [1, 4]: 0.695 h
- half-life [1, 4]: 2.17 ± 0.978 h
- AUC(0-t) [1, 4]: 129 ng·h/mL
- MRT last [1, 4]: 2.97 h
- Cmax [1, 5]: 70.3 ± 19.1 ng/mL
- Tmax [1, 5]: 0.445 h
- half-life [1, 5]: 1.99 ± 0.495 h
- AUC(0-t) [1, 5]: 142 ng·h/mL
- MRT last [1, 5]: 2.25 h
- Cmax [1, 6]: 56.9 ± 12.9 ng/mL
- Tmax [1, 6]: 0.528 h
- half-life [1, 6]: 3.59 ± 1.53 h
- AUC(0-t) [1, 6]: 196 ng·h/mL
- MRT last [1, 6]: 3.76 h
- clearance [2, 7]: 1600 ± 700 mL/min/kg
- Cmax [2, 7]: 49.1 ± 16.2 ng/mL
- Tmax [2, 7]: 0.583 h
- half-life [2, 7]: 2.19 ± 0.958 h
- AUC(0-t) [2, 7]: 138 ng·h/mL
- MRT last [2, 7]: 2.16 h
- stability in rat plasma [3]: stable
Structure (SMILES): CC12CC(O)C3CC1(OC1OC(CO)C(O)C(O)C1O)C3(COC(=O)c1ccccc1)C(=O)O2 (centres unmarked) [AF, albiflorin]

- clearance ([1]; PF (80 mg/kg) combined with AF (14 mg/kg), intragastric): 1600 ± 400 mL/min/kg
- clearance ([1]; PF alone, 80 mg/kg intragastric, normoxia): 2300 ± 400 mL/min/kg
- clearance ([1]; PF in TPG (TPG dose with PF 80 mg/kg), intragastric): 1700 ± 600 mL/min/kg
- Cmax [1, 8]: 320 ± 121 ng/mL
- Tmax [1, 8]: 0.695 h
- half-life [1, 8]: 1.63 ± 0.665 h
- AUC(0-t) [1, 8]: 865 ng·h/mL
- MRT last [1, 8]: 3.33 h
- Cmax [1, 9]: 333 ± 63.6 ng/mL
- Tmax [1, 9]: 0.583 h
- half-life [1, 9]: 1.81 ± 0.63 h
- AUC(0-t) [1, 9]: 595 ng·h/mL
- MRT last [1, 9]: 1.83 h
- Cmax [1, 10]: 291 ± 141 ng/mL
- Tmax [1, 10]: 0.388 h
- half-life [1, 10]: 3.91 ± 1.6 h
- AUC(0-t) [1, 10]: 902 ng·h/mL
- MRT last [1, 10]: 4.81 h
- clearance [2, 11]: 3050 ± 540 mL/min/kg
- Cmax [2, 11]: 177 ± 55.1 ng/mL
- Tmax [2, 11]: 0.847 h
- half-life [2, 11]: 1.86 ± 0.475 h
- AUC(0-t) [2, 11]: 443 ng·h/mL
- MRT last [2, 11]: 2.12 h
- stability in rat plasma [3]: stable
Structure (SMILES): C[C@@]12C[C@@]3(O)O[C@@H](O1)[C@]1(COC(=O)c4ccccc4)[C@H]3C[C@@]12O[C@@H]1O[C@H](CO)[C@@H](O)[C@H](O)[C@H]1O [PF, paeoniflorin]
